Reference: patent US20240358727A1, “MICROSCALE THERMOPHORESIS TO EVALUATE CHANNEL LIPID INTERACTIONS AND METHODS OF TREATING NAV CHANNELS RELATED DISEASES” (Northeastern University, priority 2023, published 2024)
Entries after “also recorded” stand apart in the source; their conditions may differ.

Biological target: T1, Nav1.5 channel currents (INa, ILATE) in M3q iPS-CMs (Homo sapiens, UniProt Q14524)
T1 construct: host or cells: human iCell^2 iPS cardiomyocytes (transfected with M3q DREADD in A5; endogenous AT1 receptor in A7)
T1 sequence (Q14524 whole entry): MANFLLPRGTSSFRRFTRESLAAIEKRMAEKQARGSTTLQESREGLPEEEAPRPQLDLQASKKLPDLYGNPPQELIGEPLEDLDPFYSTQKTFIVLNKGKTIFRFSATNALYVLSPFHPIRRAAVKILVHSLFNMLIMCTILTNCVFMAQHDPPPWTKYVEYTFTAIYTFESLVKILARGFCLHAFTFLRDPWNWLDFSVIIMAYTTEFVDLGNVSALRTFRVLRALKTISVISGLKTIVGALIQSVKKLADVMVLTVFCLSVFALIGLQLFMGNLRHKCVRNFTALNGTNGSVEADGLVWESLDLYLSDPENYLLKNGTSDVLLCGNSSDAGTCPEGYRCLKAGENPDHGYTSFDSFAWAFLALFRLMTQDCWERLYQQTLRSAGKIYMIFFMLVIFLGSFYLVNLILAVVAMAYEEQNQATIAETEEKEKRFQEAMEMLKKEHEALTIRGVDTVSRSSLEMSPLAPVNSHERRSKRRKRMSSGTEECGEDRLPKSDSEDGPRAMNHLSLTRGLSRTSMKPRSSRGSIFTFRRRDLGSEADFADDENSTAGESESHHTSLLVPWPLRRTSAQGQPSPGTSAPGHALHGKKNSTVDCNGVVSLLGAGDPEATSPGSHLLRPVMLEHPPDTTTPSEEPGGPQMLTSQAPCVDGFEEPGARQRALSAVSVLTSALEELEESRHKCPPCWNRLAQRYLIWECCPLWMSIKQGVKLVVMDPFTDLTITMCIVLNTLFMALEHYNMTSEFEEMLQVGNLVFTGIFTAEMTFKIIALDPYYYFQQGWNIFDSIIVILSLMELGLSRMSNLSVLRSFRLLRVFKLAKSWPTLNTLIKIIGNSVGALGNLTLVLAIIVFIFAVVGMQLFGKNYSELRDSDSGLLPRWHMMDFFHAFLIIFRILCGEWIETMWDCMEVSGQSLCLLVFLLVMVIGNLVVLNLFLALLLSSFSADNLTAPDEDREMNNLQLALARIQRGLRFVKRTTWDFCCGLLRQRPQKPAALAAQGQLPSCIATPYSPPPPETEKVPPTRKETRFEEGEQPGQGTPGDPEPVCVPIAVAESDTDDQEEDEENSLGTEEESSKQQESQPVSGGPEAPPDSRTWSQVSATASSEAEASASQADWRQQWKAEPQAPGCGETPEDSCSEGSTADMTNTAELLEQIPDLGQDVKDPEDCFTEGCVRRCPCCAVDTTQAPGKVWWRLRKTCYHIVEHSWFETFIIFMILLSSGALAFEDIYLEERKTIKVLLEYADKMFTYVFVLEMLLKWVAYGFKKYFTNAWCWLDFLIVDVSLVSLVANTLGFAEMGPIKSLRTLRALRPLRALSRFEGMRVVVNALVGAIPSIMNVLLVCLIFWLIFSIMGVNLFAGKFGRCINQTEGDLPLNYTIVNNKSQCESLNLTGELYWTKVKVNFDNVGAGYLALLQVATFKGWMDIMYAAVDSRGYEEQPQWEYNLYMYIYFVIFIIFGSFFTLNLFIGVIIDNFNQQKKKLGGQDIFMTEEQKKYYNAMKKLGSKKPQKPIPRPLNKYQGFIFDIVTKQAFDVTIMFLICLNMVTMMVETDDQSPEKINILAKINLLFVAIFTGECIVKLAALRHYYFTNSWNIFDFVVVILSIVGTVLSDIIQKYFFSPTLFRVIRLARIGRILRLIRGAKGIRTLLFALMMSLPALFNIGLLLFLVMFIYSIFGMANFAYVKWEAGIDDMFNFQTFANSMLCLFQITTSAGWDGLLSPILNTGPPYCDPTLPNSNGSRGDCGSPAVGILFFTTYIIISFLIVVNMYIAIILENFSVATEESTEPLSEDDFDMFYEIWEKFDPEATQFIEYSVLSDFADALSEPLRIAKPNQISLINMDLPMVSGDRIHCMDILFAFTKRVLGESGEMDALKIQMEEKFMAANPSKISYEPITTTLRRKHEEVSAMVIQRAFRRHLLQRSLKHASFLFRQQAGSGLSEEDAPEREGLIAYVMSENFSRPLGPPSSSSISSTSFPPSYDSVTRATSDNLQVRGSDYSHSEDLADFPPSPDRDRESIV
Experiment: Whole-cell patch-clamp of INa and ILATE in M3q-DREADD iPS-CMs activated with CNO
Assay type: cell-based
Settings: 100 nM CNO
Description: Control is CNO application to cells with no M3q. Mean±SD % fluorescence change for 20 cells per group; an example photobleaching montage is inset. […] Leftwards shifts in each parameter are precluded by U73122 or by 200 μM diC8-PIP2 in the pipette but are not sensitive to staurosporine or BAPTA. The cells were perfused with an extracellular solution containing (in mM): 130 NaCl, 5 CsCl, 1.2 MgCl2, 1.5 CaCl2), 8 Glucose, 10 HEPES (pH7.4). […] nitrendipine was added to the recording solution to block Ca^2+ flux through Cav channels. Patch pipettes with a resistance of 2.5-4 MQ are filled with a solution containing (in mM): 60 CsCl, 80 CsF, 2 MgCl2, 10 EGTA, 5 Na2ATP, 5 HEPES (pH 7.4). Currents were low pass (Bessel) filtered at 9 kHz and digitized at 50 kHz and were collected from cells with a series resistance <15 MQ; this was compensated by 70%.
Results. Studies are designed to evaluate if hydrolysis of PIP2 modulates Nav1.5 channel currents in cardiomyocytes. To perform these experiments, we used human iPS cardiomyocytes (iCell^2 iPS-CMs) from Fuji-Film Cellular Dynamics. These iPS-CMs are a valuable model system for human cardiomyocytes that retain many of the key characteristics of the native cells. Here, we transfected the iPS-CMs to express the Gαq-coupled M3q Designer Receptors Exclusively Activated by Designer Drugs (DREADD) receptor. We use a magnetic transfection system from Oz Biosciences that we have previously employed with cardiomyocytes. First, we tested the efficacy of M3q to hydrolyze PIP2 in our model system. To accomplish this, we studied uncoupling of the PIP2 biosensor iRFP-PHPLCδ1 from the plasma membrane in response to chemogenic activation of M3q by 100 nM clozapine N-oxide (CNO, Tocris Biosciences).
These findings are consistent with our prior observations and the work using optogenetically activated PI-phosphatases to deplete PIP2 in HEK293 cells […] Xenopus laevis oocytes. […] Having established a time frame for PIP2 hydrolysis in our system, we used whole-cell patch-clamp to study INa in paired experiments, before and after chemogenic activation of M3q. Applying 100 nM CNO evoked a leftward shift in the current-voltage (I-V) relationship of INa such that peak INa shifted from −25 to −35 mV. At −35 mV, the peak current-density increased from −220±5 pA/pF to −266±4 pA/pF at −35 mV (n=8, P<0.001, paired Student's t-test). […] However, in contrast to our findings with Nav1.4, activating M3q signaling also left-shifted the steady state inactivation curve of Nav1.5 (V½SSI), from −81.4±2 to −89.7±2 mV (n=8, P<0.01, paired t-test; FIGS. 2C, 2D). These studies indicate that Nav1.5 channels are regulated by hydrolysis of PIP2 and that there are distinctions between PIP2 regulation of Nav1.5 and Nav1.4.
Next, we studied the effect of M3q-activation on ILATE by recording currents evoked by a 400 ms depolarizing pulse to −20 mV before and during receptor activation. The magnitude of ILATE represents the mean current 150-200 ms after peak INa and is expressed as a percentage of peak INa. […] The effects of M3q activation on V½ACT, V½SSI, and the development of ILATE were not affected by staurosporine (1 μM, 1-hour preincubation) or BAPTA (10 mM in the recording pipette), making a role for IP3 or DAG unlikely. […] Similar data were obtained for Nav1.5 expressed with Navβ1 and the M3q-DREADD receptor in HEK293T cells. This experiment validates that the findings are not restricted to a particular model system or cellular environment.
Measure modulation in INa and ILATE by endogenous Gαq signaling. Like native cardiomyocytes, human iPS-CMs express AT1 receptors. Here, the effects of Ang II (Tocris) on Nav1.5 channel function in iPS-CMs is tested using four whole-cell patch-clamp recording protocols. […]

`CCCCCCCC(=O)OC[C@H](COP(=O)(O)O[C@@H]1[C@H](O)[C@H](O)[C@@H](OP(=O)(O)O)[C@H](OP(=O)(O)O)[C@H]1O)OC(=O)CCCCCCC` [diC8-PIP2] was tested, and the “effect on CNO-evoked increase in ILATE” value (200 μM diC8-PIP2 in pipette) was “precluded”, the “effect on CNO-evoked leftwards shifts in V½ACT and V½SSI” value (200 μM diC8-PIP2 in pipette) was “precluded” and the “effect on CNO (M3q activation) effects on V½ACT, V½SSI and ILATE” value (staurosporine 1 μM 1-hour preincubation, BAPTA 10 mM in pipette, U73122 5 μM, diC8-PIP2 200 μM in pipette) was “blocked; also recorded: abolished”.
